Test results published in US8367732B2, “Di-fluoro containing compounds as cysteine protease inhibitors” (Virobay, Inc., priority 2006, dated 2013).

Assays:
Type in all cases: biochemical
[1] = target: Human cathepsin S (Homo sapiens, UniProt P25774); experiment: Cathepsin S Assay; conditions: apparent inhibition constant; substrate Z-Val-Val-Arg-AMC; pH 6.5
Procedure: (§1) Solutions of test compounds in varying concentrations were prepared in 10 μL of dimethyl sulfoxide (DMSO) and then diluted into assay buffer (40 μL, comprising: MES, 50 mM (pH 6.5); EDTA, 2.5 mM; and NaCl, 100 mM); β-mercaptoethanol, 2.5 mM; and BSA, 0.00%. Human cathepsin S (0.05 pMoles in 25 μL of assay buffer) was added to the dilutions. The assay solutions were mixed for 5-10 seconds on a shaker plate, covered and incubated for 30 min at room temperature. Z-Val-Val-Arg-AMC (4 nMoles in 25 μL of assay buffer containing 10% DMSO) was added to the assay solutions and hydrolysis was followed spectrophotometrically (at λ 460 nm) for 5 min. Apparent inhibition constants (Ki) were calculated from the enzyme progress curves using standard mathematical models.

[2] = target: T1, Human cathepsin F (Homo sapiens, UniProt Q9UBX1); experiment: Cathepsin F Assay; conditions: apparent inhibition constant; substrate Z-Phe-Arg-AMC; pH 6.5
T1 sequence (Q9UBX1 271-484): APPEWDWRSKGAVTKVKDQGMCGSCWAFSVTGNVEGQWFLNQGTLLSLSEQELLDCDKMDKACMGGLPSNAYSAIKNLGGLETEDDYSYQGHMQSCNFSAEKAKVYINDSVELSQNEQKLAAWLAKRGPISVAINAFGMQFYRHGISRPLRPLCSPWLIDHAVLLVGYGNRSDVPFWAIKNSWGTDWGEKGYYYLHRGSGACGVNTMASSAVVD
Procedure: as §1, with “DTT,” for “β-mercaptoethanol,”, “0.01%.” for “0.00%.”, “F (0.1” for “S (0.05”, “Z-Phe-Arg-AMC (2” for “Z-Val-Val-Arg-AMC (4”

[3] = target: Human cathepsin L (Homo sapiens, UniProt P07711); experiment: Cathepsin L Assay; conditions: apparent inhibition constant; substrate Z-Phe-Arg-AMC; pH 5.5
Chain of Human cathepsin L (P07711 114-333): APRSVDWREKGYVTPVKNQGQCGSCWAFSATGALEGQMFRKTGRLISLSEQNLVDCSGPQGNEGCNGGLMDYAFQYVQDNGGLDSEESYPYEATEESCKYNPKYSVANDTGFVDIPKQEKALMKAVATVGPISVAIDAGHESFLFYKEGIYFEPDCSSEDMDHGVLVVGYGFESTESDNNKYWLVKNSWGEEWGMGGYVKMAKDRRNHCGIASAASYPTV
Procedure: (§2) Solutions of test compounds in varying concentrations were prepared in 10 μL of dimethyl sulfoxide (DMSO) and then diluted into assay buffer (40 μL, comprising: MES, 50 mM (pH 5.5); EDTA, 2.5 mM; and DTT, 2.5 mM). Human cathepsin L (0.05 pMoles in 25 μL of assay buffer) was added to the dilutions. The assay solutions were mixed for 5-10 seconds on a shaker plate, covered and incubated for 30 min at room temperature. Z-Phe-Arg-AMC (1 nMoles in 25 μL of assay buffer) was added to the assay solutions and hydrolysis was followed spectrophotometrically at (λ 460 nm) for 5 min. Apparent inhibition constants (Ki) were calculated from the enzyme progress curves using standard mathematical models.

[4] = target: Human cathepsin B (Homo sapiens, UniProt P07858); experiment: Cathepsin B Assay; conditions: apparent inhibition constant; substrate Z-FR-AMC; pH 6
Procedure: as §2, with “N,N-bis(2-hydroxyethyl)-2-aminoethanesulfonic acid (BES),” for “MES,”, “6); polyoxyethylenesorbitan monolaurate, 0.05%;” for “5.5); EDTA, 2.5 mM;”, “dithiothreitol (DTT),” for “DTT,”, “B (0.025” for “L (0.05”, “Z-FR-AMC (20” for “Z-Phe-Arg-AMC (1”

Chain of Human cathepsin S (P25774 115-331): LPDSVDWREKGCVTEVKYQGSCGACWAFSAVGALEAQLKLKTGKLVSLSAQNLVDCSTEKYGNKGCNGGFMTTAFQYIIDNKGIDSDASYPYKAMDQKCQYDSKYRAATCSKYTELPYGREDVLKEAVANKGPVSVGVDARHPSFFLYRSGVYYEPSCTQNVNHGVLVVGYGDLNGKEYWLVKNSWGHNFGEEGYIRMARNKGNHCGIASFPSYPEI

| SMILES | Ki [1] [nM] | Ki [2] [nM] | Ki [3] [nM] | Ki [4] [nM] |
| --- | --- | --- | --- | --- |
| N#CC1(NC(=O)[C@H](CC(F)(F)c2ccccc2)N[C@@H](c2ccc(F)cc2)C(F)(F)F)CC1 | < 20 | > 5000 | 500 to 5000 | > 5000 |
| CC(C)CC(F)(F)C[C@H](N[C@@H](c1ccc(F)cc1)C(F)(F)F)C(=O)NC1(C#N)CC1 | < 20 | 21 to 500 | 21 to 500 | 21 to 500 |
| N#CC1(NC(=O)[C@H](CC(F)(F)Cc2ccccc2)N[C@@H](c2ccc(F)cc2)C(F)(F)F)CC1 | < 20 | 500 to 5000 | 21 to 500 | 21 to 500 |
| CCCCC(F)(F)C[C@H](N[C@@H](c1ccc(F)cc1)C(F)(F)F)C(=O)NC1(C#N)CC1 | < 20 |  |  |  |
| CCC(F)(F)CC[C@H](N[C@@H](c1ccc(F)cc1)C(F)(F)F)C(=O)NC1(C#N)CC1 | < 20 |  |  |  |

More lines, now with the values ahead:

| Ki [1] [nM] | Ki [2] [nM] | Ki [3] [nM] | Ki [4] [nM] | SMILES |
| --- | --- | --- | --- | --- |
| < 20 | 21 to 500 | 21 to 500 | 21 to 500 | CCCC(F)(F)C[C@H](N[C@@H](c1ccc(F)cc1)C(F)(F)F)C(=O)NC1(C#N)CC1 |
| < 20 | 21 to 500 | 21 to 500 | 21 to 500 | N#CC1(NC(=O)[C@H](CC(F)(F)CC2CC2)N[C@@H](c2ccc(F)cc2)C(F)(F)F)CC1 |
| < 20 | 21 to 500 | 21 to 500 | 21 to 500 | CCC(F)(F)C[C@H](N[C@@H](c1ccc(F)cc1)C(F)(F)F)C(=O)NC1(C#N)CC1 |
